In ChEMBL document CHEMBL1201862, “PubChem BioAssay data set” (2004):
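Protocol summary: plate cells (96-well), add compound at 5 concentrations, incubate 48 h, interpolate endpoints linearly. GI50 is the concentration that inhibits growth by half.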 Activity calls are given as the source filed them. Cut-off read from the data, not from the text of the source: active = GI50 up to about 1.1 µM and inactive = higher.

How the values were obtained:
Test in all cases: inhibition of tumour cell growth, NCI panel, 48 h
OVCAR-8 = test system: OVCAR-8
SW-620 = test system: SW-620
HCT-116 = test system: HCT-116
OVCAR-5 = test system: OVCAR-5
SR = test system: SR
A549 = test system: A549
SF-295 = test system: SF-295
HOP-92 = test system: HOP-92
MOLT-4 = test system: MOLT-4
RXF 393 = test system: RXF 393
MDA-N = test system: MDA-N
MCF7 = test system: MCF7
NCI-H23 = test system: NCI-H23
EKVX = test system: EKVX
BT-549 = test system: BT-549
SNB-75 = test system: SNB-75
HT-29 = test system: HT-29
ACHN = test system: ACHN
Malme-3M = test system: Malme-3M
RPMI-8226 = test system: RPMI-8226

SMILES	GI50 (OVCAR-8)	GI50 (SW-620)	GI50 (HCT-116)	GI50 (OVCAR-5)	GI50 (SR)	GI50 (A549)	GI50 (SF-295)	GI50 (HOP-92)	GI50 (MOLT-4)	GI50 (RXF 393)	GI50 (MDA-N)	GI50 (MCF7)	GI50 (NCI-H23)	GI50 (EKVX)	GI50 (BT-549)	GI50 (SNB-75)	GI50 (HT-29)	GI50 (ACHN)	GI50 (Malme-3M)	GI50 (RPMI-8226)
CCc1cc2c(oc3c4ccccc4ccc23)c(=O)[nH]1	> 10 µM (inactive)	> 10 µM (inactive)	> 10 µM (inactive)	> 10 µM (inactive)	> 10 µM (inactive)	> 10 µM (inactive)	> 10 µM (inactive)	> 10 µM (inactive)	> 10 µM (inactive)	> 10 µM (inactive)	> 10 µM (inactive)	> 10 µM (inactive)	> 10 µM (inactive)	> 10 µM (inactive)	> 10 µM (inactive)	> 10 µM (inactive)	> 10 µM (inactive)	> 10 µM (inactive)	–	–
COc1ccccc1N1C(=O)/C(=C\c2cccc(Oc3ccccc3)c2)S(=O)(=O)C1c1ccccc1 (stereo not drawn)	–	49.3 µM (inactive)	23.8 µM (inactive)	89.9 µM (inactive)	16.7 µM (inactive)	> 100 µM (inactive)	81.8 µM (inactive)	14.5 µM (inactive)	4.92 µM (inactive)	> 100 µM (inactive)	36.4 µM (inactive)	27.4 µM (inactive)	19 µM (inactive)	10.5 µM (inactive)	26.6 µM (inactive)	–	–	> 100 µM (inactive)	69.3 µM (inactive)	–
OCCCc1cc(O)c2c(c1)C(CO)C(c1ccc(O)c(O)c1)O2 (stereo not drawn)	> 100 µM (inactive)	> 100 µM (inactive)	> 100 µM (inactive)	> 100 µM (inactive)	> 100 µM (inactive)	> 100 µM (inactive)	> 100 µM (inactive)	> 100 µM (inactive)	> 100 µM (inactive)	–	> 100 µM (inactive)	> 100 µM (inactive)	> 100 µM (inactive)	> 100 µM (inactive)	> 100 µM (inactive)	–	> 100 µM (inactive)	> 100 µM (inactive)	> 100 µM (inactive)	> 10 µM (inactive)
COC(=O)C1(c2cc3ccccc3n2S(=O)(=O)c2ccccc2)CC2C=CC1NC2 (stereo not drawn)	1.95 µM (inactive)	2.91 µM (inactive)	2.23 µM (inactive)	2.25 µM (inactive)	0.216 µM (active)	2.96 µM (inactive)	2.91 µM (inactive)	1.52 µM (inactive)	1.62 µM (inactive)	1.76 µM (inactive)	2.13 µM (inactive)	1.5 µM (inactive)	2.18 µM (inactive)	4.03 µM (inactive)	2.36 µM (inactive)	3.8 µM (inactive)	1.79 µM (inactive)	1.84 µM (inactive)	–	0.933 µM (active)
O=C(N/N=C(COc1ccc(Cl)cc1)\N=C\c1cccnc1)c1ccncc1	89.1 µM (inactive)	> 100 µM (inactive)	> 100 µM (inactive)	> 100 µM (inactive)	–	> 100 µM (inactive)	> 100 µM (inactive)	24.2 µM (inactive)	84.3 µM (inactive)	77.3 µM (inactive)	25.5 µM (inactive)	> 100 µM (inactive)	> 100 µM (inactive)	> 100 µM (inactive)	> 100 µM (inactive)	55.3 µM (inactive)	> 100 µM (inactive)	> 100 µM (inactive)	49.7 µM (inactive)	32.5 µM (inactive)
COc1c2cc([N+](=O)[O-])cc1CNC(=O)CN1CCOCCOCCN(CCOCCOCC1)CC(=O)NC2	> 100 µM (inactive)	> 100 µM (inactive)	> 100 µM (inactive)	> 100 µM (inactive)	–	> 100 µM (inactive)	> 100 µM (inactive)	> 100 µM (inactive)	> 100 µM (inactive)	> 100 µM (inactive)	> 100 µM (inactive)	> 100 µM (inactive)	> 100 µM (inactive)	> 100 µM (inactive)	> 100 µM (inactive)	> 100 µM (inactive)	> 100 µM (inactive)	> 100 µM (inactive)	> 100 µM (inactive)	56.4 µM (inactive)
CC(C)CCCC(C)[C@H]1CC[C@H]2n3c(nnc3-c3ccccc3)CCC[C@]12C (stereo partly drawn)	15.9 µM (inactive)	6.21 µM (inactive)	9.48 µM (inactive)	–	4.06 µM (inactive)	9.86 µM (inactive)	9.08 µM (inactive)	15.1 µM (inactive)	3.96 µM (inactive)	11.5 µM (inactive)	13.6 µM (inactive)	5.97 µM (inactive)	12.4 µM (inactive)	–	19.8 µM (inactive)	17.5 µM (inactive)	17.5 µM (inactive)	–	23.2 µM (inactive)	4.13 µM (inactive)
COc1ccc(-c2c3c(n(C4OC(COC(C)=O)C(OC(C)=O)C(OC(C)=O)C4OC(C)=O)c(=S)c2C#N)CCC3)cc1 (stereo not drawn)	–	> 100 µM (inactive)	> 100 µM (inactive)	> 100 µM (inactive)	> 100 µM (inactive)	> 100 µM (inactive)	> 100 µM (inactive)	6.82 µM (inactive)	> 100 µM (inactive)	92.3 µM (inactive)	> 100 µM (inactive)	> 100 µM (inactive)	> 100 µM (inactive)	–	96.4 µM (inactive)	> 100 µM (inactive)	> 100 µM (inactive)	> 100 µM (inactive)	> 100 µM (inactive)	> 100 µM (inactive)
COC1CC(OC2C(C)OC(OC3C(C)OC(OC4C(C)OC(O[C@H]5CC[C@@]6(C)C(=CC[C@]7(O)[C@@H]6C[C@@H](OC(C)=O)[C@@]6(C)[C@]7(O)CC[C@@]6(O)C(C)=O)C5)CC4OC)CC3OC)CC2OC)OC(C)C1O (stereo partly drawn)	> 25 µM (inactive)	> 25 µM (inactive)	> 25 µM (inactive)	> 25 µM (inactive)	> 25 µM (inactive)	> 25 µM (inactive)	> 25 µM (inactive)	> 25 µM (inactive)	> 25 µM (inactive)	–	> 25 µM (inactive)	> 25 µM (inactive)	> 25 µM (inactive)	> 25 µM (inactive)	> 25 µM (inactive)	> 25 µM (inactive)	> 25 µM (inactive)	> 25 µM (inactive)	> 25 µM (inactive)	> 25 µM (inactive)
CC1=Nc2c(C#N)ncn2N=C(C)C1	–	> 100 µM (inactive)	> 100 µM (inactive)	> 100 µM (inactive)	> 100 µM (inactive)	> 100 µM (inactive)	> 100 µM (inactive)	> 100 µM (inactive)	> 100 µM (inactive)	> 100 µM (inactive)	> 100 µM (inactive)	> 100 µM (inactive)	> 100 µM (inactive)	–	> 100 µM (inactive)	> 100 µM (inactive)	> 100 µM (inactive)	> 100 µM (inactive)	–	> 100 µM (inactive)
Nc1nn2c(=O)c3ccccc3nc2s1	30 µM (inactive)	19.2 µM (inactive)	57.3 µM (inactive)	> 100 µM (inactive)	20.5 µM (inactive)	> 100 µM (inactive)	> 100 µM (inactive)	> 100 µM (inactive)	23.3 µM (inactive)	> 100 µM (inactive)	38.3 µM (inactive)	50.1 µM (inactive)	28.4 µM (inactive)	> 100 µM (inactive)	22.6 µM (inactive)	> 100 µM (inactive)	41.2 µM (inactive)	> 100 µM (inactive)	–	32.4 µM (inactive)
CN(C)c1ccc(/C=C2\N=C(NNc3ccccc3)NC2=O)cc1	30.9 µM (inactive)	26.8 µM (inactive)	22.9 µM (inactive)	31.8 µM (inactive)	–	20.4 µM (inactive)	21.5 µM (inactive)	17.3 µM (inactive)	< 0.01 µM (active)	18.7 µM (inactive)	27.7 µM (inactive)	17.9 µM (inactive)	20 µM (inactive)	19 µM (inactive)	30 µM (inactive)	25.5 µM (inactive)	16.9 µM (inactive)	20.2 µM (inactive)	38.2 µM (inactive)	16 µM (inactive)
COc1cc(CC2c3cc(OC)c(OC)cc3CCN2C)c(Oc2cc3c(cc2OC)-c2c(O)c(OC)cc4c2C(C3)N(C)CC4)cc1OC (stereo not drawn)	20.8 µM (inactive)	39.5 µM (inactive)	18.1 µM (inactive)	45.8 µM (inactive)	3.68 µM (inactive)	33.2 µM (inactive)	17.9 µM (inactive)	14.5 µM (inactive)	19.4 µM (inactive)	2.11 µM (inactive)	16.7 µM (inactive)	12.5 µM (inactive)	22.2 µM (inactive)	20.5 µM (inactive)	14.8 µM (inactive)	14.9 µM (inactive)	6.82 µM (inactive)	22.9 µM (inactive)	23.8 µM (inactive)	–
COc1ccc(S(=O)(=O)N2C(=O)CCC2C(=O)NC(N)=O)cc1 (stereo not drawn)	> 100 µM (inactive)	> 100 µM (inactive)	> 100 µM (inactive)	> 100 µM (inactive)	> 100 µM (inactive)	> 100 µM (inactive)	> 100 µM (inactive)	> 100 µM (inactive)	> 100 µM (inactive)	–	> 100 µM (inactive)	> 100 µM (inactive)	> 100 µM (inactive)	> 100 µM (inactive)	> 100 µM (inactive)	0.381 µM (active)	> 100 µM (inactive)	> 100 µM (inactive)	> 100 µM (inactive)	> 100 µM (inactive)
N#Cc1ccc(/C=C2\Cc3ccccc3C2=O)cc1	> 100 µM (inactive)	> 100 µM (inactive)	> 100 µM (inactive)	–	> 100 µM (inactive)	> 100 µM (inactive)	> 100 µM (inactive)	–	> 100 µM (inactive)	> 100 µM (inactive)	> 100 µM (inactive)	> 100 µM (inactive)	> 100 µM (inactive)	46.8 µM (inactive)	> 100 µM (inactive)	> 100 µM (inactive)	> 100 µM (inactive)	> 100 µM (inactive)	–	> 100 µM (inactive)
